{"source": "patent US20230357301A1", "about": "“HEXOSE DERIVATIVES, PREPARATION AND USES THEREOF” (Faculdade de Ciencias da Universidade de Lisboa, priority 2014, published 2023)", "key": {"[1]": {"target": "T1, lysozyme (Gallus gallus, UniProt P00698)", "T1 construct": "hen egg white lysozyme was purchased from Sigma-Aldrich; purchased Sigma-Aldrich; host or cells: hen egg white", "T1 sequence (P00698 19-147)": "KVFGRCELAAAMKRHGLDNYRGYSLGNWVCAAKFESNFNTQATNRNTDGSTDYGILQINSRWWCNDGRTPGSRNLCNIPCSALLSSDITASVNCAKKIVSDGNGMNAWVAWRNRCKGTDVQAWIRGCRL", "experiment": "DSF thermal stability assay, lysozyme", "set-up": "species or system hen", "procedure": "The DSF based stability assays were performed at each protein working pH and the melting temperatures (TM) values determined in the absence (control experiments) and in the presence of solutes, and at different solute concentrations. The denaturation curves for each assay were analysed, and the melting temperatures determined by the calculation of the first derivative, which corresponds to the midpoint temperature of the protein-unfolding transition. […] The unfolding temperature shifts (ΔTM) were calculated by comparing the TM values obtained in the presence of solutes with the TM values of the control experiments (absence of solutes).\nMitochondrial malate dehydrogenase from pig heart (MDII) was purchased from Roche, and hen egg white lysozyme was purchased from Sigma-Aldrich. These enzymes were used without further purification.\nThe protein melting temperature (TM) determination was performed by monitoring protein unfolding with the fluoroprobe SYPRO Orange dye (Molecular Probes), which although completely quenched in aqueous environment, emits fluorescence upon binding to protein hydrophobic patches. Such increase in fluorescence can be measured as a function of temperature using Differential Scanning Fluorimetry. In a typical assay with a total volume of 20 µL, a protein concentration from 0.14 to 0.21 mg/mL, and a dye concentration of 5 fold were used to guarantee the best signal to noise ratio. Protein stock solutions of SNase or MDH were prepared in phosphate buffer (20 mM of sodium phosphate, pH 7.6), and lysozyme was prepared in citrate buffer (40 mM sodium citrate, 110 mM NaCl, pH 6.0). These stock solutions were extensively dialyzed against the same buffer before the assays. […] Solute solutions were prepared in water with the respective concentrations. […] Fluorescence intensities versus temperature are used to calculate the protein melting temperature (TM) by determining the first derivative (d(Rfu)/dT) to extract the exact transition inflection point."}, "[2]": {"target": "T2, porcine insulin (Sus scrofa, UniProt P01315)", "T2 construct": "solutions comprising porcine insulin at a concentration of 129 µM", "T2 sequence (P01315 25-54 limits assumed)": "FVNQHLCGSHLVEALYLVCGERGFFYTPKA", "T2 sequence (P01315 88-108 limits assumed)": "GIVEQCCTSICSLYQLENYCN", "experiment": "DSF thermal stability assay, porcine insulin", "conditions": "insulin 129 µM, solute 0.1 and 0.25 M (FIG. 11)"}, "[3]": {"target": "T3, staphylococcal nuclease (SNase) (Staphylococcus aureus, UniProt P00644)", "T3 construct": "Recombinant staphylococcal nuclease A (SNase) was produced and purified from Escherichia coli cells; made in house; host or cells: Escherichia coli", "experiment": "DSF thermal stability assay, staphylococcal nuclease", "conditions": "solute 0.1, 0.25 and 0.5 M (FIG. 8)", "method": "(§1) The DSF based stability assays were performed at each protein working pH and the melting temperatures (TM) values determined in the absence (control experiments) and in the presence of solutes, and at different solute concentrations. The denaturation curves for each assay were analysed, and the melting temperatures determined by the calculation of the first derivative, which corresponds to the midpoint temperature of the protein-unfolding transition. In the absence of solutes, malate dehydrogenase (MDH), staphylococcal nuclease (SNase) and lysozyme have melting temperatures (TM) of 50, 52 and 71° C. respectively. The unfolding temperature shifts (ΔTM) were calculated by comparing the TM values obtained in the presence of solutes with the TM values of the control experiments (absence of solutes).\n(§2) Mannosylglycerate (MG), glucosylglycerate (GG), glucosylglucosylglycerate (GGG), mannosyl glycolate (MGly) and mannosyl lactate (ML) were obtained by chemical synthesis as described in literature (Costa 1998). New synthetic compounds were obtained by chemical synthesis as described in Example 1. […] Purity and concentration of the compounds was assessed by ^1H NMR spectra obtained at 500 MHz spectrometer in D2O. For quantification purposes, spectra were acquired with a repetition delay of 60 s with formate as concentration standard. […]"}, "[4]": {"target": "T4, malate dehydrogenase (MDH) (Sus scrofa, UniProt P00346)", "T4 construct": "Mitochondrial malate dehydrogenase from pig heart (MDII) was purchased from Roche; purchased Roche; host or cells: pig heart", "T4 sequence (P00346 25-338)": "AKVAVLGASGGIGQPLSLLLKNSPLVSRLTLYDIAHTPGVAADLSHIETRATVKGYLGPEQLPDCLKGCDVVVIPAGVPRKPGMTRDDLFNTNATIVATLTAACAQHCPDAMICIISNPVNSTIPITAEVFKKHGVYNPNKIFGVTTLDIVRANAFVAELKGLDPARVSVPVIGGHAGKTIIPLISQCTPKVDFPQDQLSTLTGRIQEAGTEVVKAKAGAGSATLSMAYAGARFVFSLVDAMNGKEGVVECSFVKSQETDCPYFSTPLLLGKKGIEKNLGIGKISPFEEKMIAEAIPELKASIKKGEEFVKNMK", "experiment": "DSF thermal stability assay, malate dehydrogenase", "set-up": "species or system pig", "conditions": "solute 0.1, 0.25 and 0.5 M (FIG. 9)", "method": "as §1, §2"}}}
{"molecule": "CC(=O)[O-].[K+]", "note": "[AcOK, potassium acetate]", "values": [{"measurement": "stabilising effect of AcOK alone on lysozyme", "setting": "[1]; AcOK alone, concentration dependence (FIG. 6)", "value": "not a good stabiliser, stabilising only at high salt concentrations"}, {"measurement": "stabilising effect of AcOK on lysozyme in conjugation with hypersolutes", "setting": "[1]; AcOK with hypersolutes (0.5 M) (FIG. 6)", "value": "able to enhance their stabilisation properties"}]}
{"molecule": "O=C([O-])COC1O[C@H](CO)[C@@H](O)[C@H](O)[C@H]1O.[K+]", "note": "(stereo partly drawn) [glucosyl glycolate, Potassium 2-(α/β-D-glucopyranosyl) acetate]", "values": [{"measurement": "increment in melting temperature of porcine insulin", "setting": "[2]", "value": "highest increases in melting temperature"}]}
{"molecule": "Potassium (2S) -2-0- (α/β-D-galactopyranosyl)-2-hydroxysuccinate [α-galactosyl malate]", "values": [{"measurement": "dependence of lysozyme melting temperature on the concentration of solutes", "setting": "[1]; solute 0.1, 0.25 and 0.5 M (FIG. 10)", "value": "clearly the best stabiliser"}, {"measurement": "dependence of SNase melting temperature on the concentration of solutes", "setting": "[3]", "value": "clearly the best stabiliser"}]}
{"molecule": "Potassium (2S)-2-O-(α/β-D-glucopyranosyl)-2-hydroxysuccinate [glucosyl malate]", "values": [{"measurement": "dependence of MDH melting temperature on the concentration of solutes", "setting": "[4]", "value": "the best stabiliser"}, {"measurement": "increment in melting temperature of porcine insulin", "setting": "[2]", "value": "highest increases in melting temperature"}]}
